EC50 data for 11 compounds are collected here from patent US20100173935A1, “Muscarinic Receptor Agonists that are Effective in the Treatment of Pain, Alzheimer's Disease and Schizophrenia” (AstraZeneca AB, priority 2006, published 2010).

The target in assay [1] is T1, human M2 receptor (Homo sapiens, UniProt P08172).
T1 construct: purchased Perkin-Elmer RBHM2M; host or cells: CHO cell membranes
T1 sequence (P08172 1-466): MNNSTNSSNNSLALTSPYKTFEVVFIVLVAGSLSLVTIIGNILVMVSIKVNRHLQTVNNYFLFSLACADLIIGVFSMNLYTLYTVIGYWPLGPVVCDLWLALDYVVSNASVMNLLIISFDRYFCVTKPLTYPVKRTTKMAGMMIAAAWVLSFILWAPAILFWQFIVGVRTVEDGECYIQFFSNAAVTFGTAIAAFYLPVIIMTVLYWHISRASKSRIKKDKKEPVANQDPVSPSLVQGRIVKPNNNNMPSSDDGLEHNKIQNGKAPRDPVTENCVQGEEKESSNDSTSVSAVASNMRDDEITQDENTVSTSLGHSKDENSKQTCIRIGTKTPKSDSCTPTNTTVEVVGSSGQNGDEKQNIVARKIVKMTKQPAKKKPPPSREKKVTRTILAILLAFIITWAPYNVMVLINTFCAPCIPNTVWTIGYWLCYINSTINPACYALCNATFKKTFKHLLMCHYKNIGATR
Nature of the assay: hM2 receptor GTPγS binding. The class given is biochemical. The method, then:
Membranes produced from Chinese hamster ovary cells (CHO) expressing the cloned human M2 receptor (human Muscarinic receptor subtype 2, gene bank access NM_000739), were obtained from Perkin-Elmer (RBHM2M). The membranes were thawed at 37° C., passed 3 times through a 23-gauge blunt-end needle, diluted in the GTPγS binding buffer (50 mM Hepes, 20 mM NaOH, 100 mM NaCl, 1 mM EDTA, 5 mM MgCl2, pH 7.4, […] DTT). The EC50, IC50 and Emax of the compounds of the invention were evaluated from 10-point dose-response curves (three fold concentration range) done in 60 μl in 384-well non-specific binding surface plate (Corning). Ten microliters from the dose-response curves plate (5× concentration) were transferred to another 384 well plate containing the following: 10 μg of hM2 membranes, 500 μg of Flashblue beads (Perkin-Elmer) and GDP in a 25 μl volume. An additional 15 μl containing 3.3× (55000 dpm) of GTRγ35S (0.4 nM final) were added to the wells resulting in a total well volume of 50 μl. Basal and maximal stimulated [^35S]GTPγS binding were determined in absence and presence of 30 μM of acetylcholine agonist. The membranes/beads mix were pre-incubated for 15 minutes at room temperature with 25 μM GDP prior to distribution in plates (12.5 μM final). The reversal of acetylcholine-induced stimulation (2 μM final) of [^35S]GTPγS binding was used to assay the antagonist properties (IC50) of the compounds. The plates were incubated for 60 minutes at room temperature with shaking, then centrifuged at 2000 rpm for 5 minutes. The radioactivity (cpm) were counted in a Trilux (Perkin-Elmer).
Values of EC50, IC50 and Emax were obtained using sigmoidal fits of a non-linear curve-fitting program (XLfit version 5.0.6 from ID Business Solutions Limited, Guildford, UK) of percent stimulated [^35S]GTPγS binding vs. log(molar ligand).
All EC50 and IC50 values are reported as arithmetic means t standard error of mean of ‘n’ independent experiments. […] The IC50 was the concentration of the compound of the invention at which 50% inhibition of acetylcholine [^35S]GTPγS binding stimulation has been observed.

Assay [2] concerns the target T2, human M4 receptor (Homo sapiens, UniProt P08173).
T2 construct: purchased Perkin-Elmer RBHM4M; host or cells: CHO cell membranes
T2 sequence (P08173 1-479): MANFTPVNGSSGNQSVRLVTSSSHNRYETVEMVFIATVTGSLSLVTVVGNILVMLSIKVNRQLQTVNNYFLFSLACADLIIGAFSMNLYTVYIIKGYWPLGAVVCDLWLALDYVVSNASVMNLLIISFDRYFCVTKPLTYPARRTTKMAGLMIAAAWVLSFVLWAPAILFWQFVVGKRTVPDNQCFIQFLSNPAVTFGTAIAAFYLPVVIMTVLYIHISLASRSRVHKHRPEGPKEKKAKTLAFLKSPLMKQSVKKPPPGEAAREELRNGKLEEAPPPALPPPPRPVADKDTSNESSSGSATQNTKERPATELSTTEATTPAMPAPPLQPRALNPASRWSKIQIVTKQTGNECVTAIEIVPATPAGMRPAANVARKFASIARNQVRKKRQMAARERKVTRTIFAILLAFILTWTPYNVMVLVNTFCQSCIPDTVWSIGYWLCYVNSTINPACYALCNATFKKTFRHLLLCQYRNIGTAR
The experiment in a line: hM4 receptor GTPγS binding. The class given is biochemical. The method, then:
Membranes produced from Chinese hamster ovary cells (CHO) expressing the cloned human M4 receptor (human Muscarinic receptor subtype 4, gene bank access NM_000741), were obtained from Perkin-Elmer (RBHM4M). The membranes were thawed at 37° C., passed 3 times through a 23-gauge blunt-end needle, diluted in the GTPγS binding buffer (50 mM Hepes, 20 mM NaOH, 100 mM NaCl, 1 mM EDTA, 5 mM MgCl2, pH 7.4, 100 μM DTT). The EC50, IC50 and Emax of the compounds of the invention were evaluated from 10-point dose-response curves (three fold concentration range) done in 60 μl in 384-well non-specific binding surface plate (Corning). Ten microliters from the dose-response curves plate (5× concentration) were transferred to another 384 well plate containing the following: 10 μg of hM4 membranes, 500 μg of Flashblue beads (Perkin-Elmer) and GDP in a 25 μl volume. An additional 15 μl containing 3.3× (55000 dpm) of GTPγS (0.4 nM final) were added to the wells resulting in a total well volume of […]. Basal and maximal stimulated [^35S]GTPγS binding were determined in absence and presence of 30 μM of acetylcholine agonist. The membranes/beads mix were pre-incubated for 15 minutes at room temperature with 40 μM GDP prior to distribution In plates (20 μM final). The reversal of acetylcholine-induced stimulation (10 μM final) of [^35S]GTPγS binding was used to assay the antagonist properties (IC50) of the compounds. The plates were incubated for 60 minutes at room temperature with shaking, then centrifuged at 2000 rpm for 5 minutes. The radioactivity (cpm) were counted in a Trilux (Perkin-Elmer).
Values of EC50, IC50 and Emax were obtained using sigmoidal fits of a non-linear curve-fitting program (XLfit version 5.0.6 from ID Business Solutions Limited, Guildford, UK) of percent stimulated [^35S]GTRγS binding vs. log(molar ligand).
All EC50 and IC50 values are reported as arithmetic means±standard error of mean of ‘n’ independent experiments. […] The IC50 was the concentration of the compound of the invention at which 50% inhibition of acetylcholine [^35S]GTRγS binding stimulation has been observed.
In general terms: GTPγS is a poorly hydrolysed GTP analogue; its binding reports G protein activation.

Setting [3] is: CHO membranes expressing cloned human M2, [35S]GTPγS binding, read-out: hM2 EC50.
Setting [4] is: CHO membranes expressing cloned human M4, [35S]GTPγS binding, read-out: hM4 EC50.

Read-outs that look alike come from different tables or passages of the source.

Consider `CCOC(=O)N1CC[C@@H](N2CCC(n3c(=O)[nH]c4ccccc43)CC2)C1` [Example 16, Ethyl (3R)-3-[4-(2-oxo-2,3-dihydro-1H-benzimidazol-1-yl)piperidin-1-yl]pyrrolidine-1-carboxylate], for which the 50% effective concentration (EC50) in assay [1] (setting [3]) was 3.29 µM; in assay [2] (setting [4]) it was more than 30 µM.

On to `CCOC(=O)N1CC[C@H](N2CCC(n3c(=O)[nH]c4ccc(Cl)cc43)CC2)C1` [Example 42, Ethyl (3S)-3-[4-(6-chloro-2-oxo-2,3-dihydro-1H-benzimidazol-1-yl)piperidin-1-yl]pyrrolidine-1-carboxylate], for which the figures for the half-maximal effective concentration (EC50) in assay [1] and in assay [2] were 1.2 µM and not below 10 µM, respectively.

As to `O=C1CCCN1CCCC(=O)N1CC[C@H](N2CCC(n3c(=O)[nH]c4ccccc43)CC2)C1` [Example 22, 1-(1-{(3S)-1-[4-(2-oxopyrrolidin-1-yl)butanoyl]pyrrolidin-3-yl}piperidin-4-yl)-1,3-dihydro-2H-benzimidazol-2-one], the EC50 in assay [1] and in assay [2] was more than 30 µM in each case.

Regarding `CCOC(=O)N1CCC(N2CCC(C3C(=O)Nc4ccccc43)CC2)C1` (stereo not shown) [Example 13, Ethyl 3-[4-(2-oxo-2,3-dihydro-1H-indol-3-yl)piperidin-1-yl]pyrrolidine-1-carboxylate], the EC50 in assay [1] (setting [3]) was 3.54 µM; in assay [2] (setting [4]) it was more than 30 µM.

As for `CCOC(=O)N1CC[C@H](N2CCC(N3C(=O)Cc4ccccc43)CC2)C1` [Example 26, Ethyl (3S)-3-[4-(2-oxo-2,3-dihydro-1H-indol-1-yl)piperidin-1-yl]pyrrolidine-1-carboxylate], the EC50 in assay [1] was 7.45 µM; in assay [2], more than 30 µM.

Regarding `O=C(C1CCCC1)N1CC[C@H](N2CCC(n3c(=O)[nH]c4ccccc43)CC2)C1` [Example 19, 1-{1-[(3S)-1-(cyclopentylcarbonyl)pyrrolidin-3-yl]piperidin-4-yl}-1,3-dihydro-2H-benzimidazol-2-one], the EC50 in assay [1] amounted to 0.245 µM; in assay [2], 0.577 µM.

For the compound `O=C1CCCN1CCC(=O)N1CC[C@H](N2CCC(N3C(=O)Cc4ccccc43)CC2)C1` [Example 29, 1-(1-{(3S)-1-[3-(2-oxopyrrolidin-1-yl)propanoyl]pyrrolidin-3-yl}piperidin-4-yl)-1,3-dihydro-2H-indol-2-one], the EC50 was 1.75 µM in assay [1] and more than 30 µM in assay [2].

`CCOC(=O)N1CC[C@H](N2CCC(n3c(=O)[nH]c4ccc(C#N)cc43)CC2)C1` [Example 41, Ethyl (3S)-3-[4-(6-cyano-2-oxo-2,3-dihydro-1H-benzimidazol-1-yl)piperidin-1-yl]pyrrolidine-1-carboxylate]: the EC50 is more than 3.33 µM in assay [1] and more than 30 µM in assay [2].

For `Cn1c(=O)n(C2CCN([C@H]3CCN(C(=O)CCN4CCCC4=O)C3)CC2)c2ccccc21` [Example 24, 1-methyl-3-(1-{(3S)-1-[3-(2-oxopyrrolidin-1-yl)propanoyl]pyrrolidin-3-yl}piperidin-4-yl)-1,3-dihydro-2H-benzimidazol-2-one], the concentration giving a half-maximal response (EC50) in assay [1] (setting [3]) and in assay [2] (setting [4]) was more than 30 µM in each case.

For the compound `CCOC(=O)N1CC[C@H](N2CCC(n3c(=O)[nH]c4ccc(F)cc43)CC2)C1` (single isomer, unassigned) [Example 35], the concentration for a half-maximal effect (EC50) in assay [1] and in assay [2] was more than 30 µM throughout.

On to `CCOC(=O)N1CC[C@@H](N2CCC(n3c(=O)[nH]c4ccc(F)cc43)CC2)C1` (single isomer, unassigned) [Example 36], for which the values for the 50% effective concentration (EC50) in assay [1] and in assay [2] were 4.65 µM and more than 30 µM, respectively.

A word on the EC50: it is the concentration at which the effect is half-maximal.
